Data on 27 compounds can be found in patent publication US12257247B2 (Monte Rosa Therapeutics AG, priority 2023, dated 2025).

Read-outs that look alike come from different tables or passages of the source.

This assay concerns the target T1, VAV1 (Homo sapiens, UniProt P15498+Q96SW2).
T1 construct: A heterozygous VAV1 C-terminal HiBiT knock-in pool was generated at Monte Rosa Therapeutics from a clonal Jurkat cell; endogenous in cells; host or cells: Jurkat clone stably expressing LgBiT, homozygous GSPT1-G575N; heterozygous VAV1-HiBiT knock-in pool
Description: VAV1 degradation activity, VAV1-HiBiT knock-in Jurkat luminescence assay (Example A, Table 1). The assay is classed as cell-based. The settings on record: VAV1-HiBiT knock-in Jurkat cells; for Dmax: Jurkat. A digest of the protocol:
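Jurkat cells carrying VAV1-HiBiT knock-in, plated in RPMI/10% FBS with Endurazine live-cell substrate and pre-incubated ~16 h at 37° C. Compound dosed from 10 μM stock; luminescence read 6 and 24 h later. Response normalised to plate negative/positive controls, EC50 from 3-parameter logistic fit (hillslope 1).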
A general note: The HiBiT peptide binds its large partner to form an active luciferase.

The mark [1] stands for this setting: luminescence read at 6 and 24 hours, read-out: VAV1 Dmax %.
Setting [2] is: luminescence read at 6 and 24 hours, read-out: VAV1 Dmax %, class.
The mark [3] stands for this setting: luminescence read at 6 and 24 hours, read-out: VAV1 DC50.
[4] abbreviates: luminescence read at 6 and 24 hours, read-out: VAV1 DC50 (nM), class.

A word on the Dmax: it is the largest share of the target that was removed. Broadly, the DC50 is the concentration giving 50% degradation. Consider `Cn1ccc(COc2ncc(-c3cccc(C4CCC(=O)NC4=O)c3Cl)cn2)n1` (stereo not drawn) [Compound 479, 3-(2-chloro-3-(2-((1-methyl-1H-pyrazol-3-yl)methoxy)pyrimidin-5-yl)phenyl)piperidine-2,6-dione], for which the Dmax under setting [1] is 31% and the greatest degradation seen (Dmax) under setting [2] is below 60%. For the same compound, the DC50 runs as follows: under setting [3], at least 10000 nM; under setting [4], above 1000 nM.
Take `Cn1cnc(COc2ccc(-c3cccc(C4CCC(=O)NC4=O)c3Cl)cc2)c1` (stereo not drawn) [Compound 183, 3-(2-chloro-4′-((1-methyl-1H-imidazol-4-yl)methoxy)-[1,1′-biphenyl]-3-yl)piperidine-2,6-dione]: the Dmax by setting is: under setting [1], 95.7%; under setting [2], above 90%. Moreover, the DC50 was 5.55 nM under setting [3] and at most 100 nM under setting [4].
On the same counts, the results for `O=C1CCC(c2cccc(-c3ccc(Cc4ccon4)cc3)c2Cl)C(=O)N1` (stereo not drawn) [Compound 455, 3-(2-chloro-4′-(isoxazol-3-ylmethyl)-[1,1′-biphenyl]-3-yl)piperidine-2,6-dione] are 95.5%, above 90%, 15.2 nM and at most 100 nM.
On the same counts, the results for `O=C1CCC(c2cccc(-c3ccc(CN4C(=O)CCn5nccc54)cc3)c2Cl)C(=O)N1` (stereo not drawn) [Compound 253] are 87.7%, 60 to 90%, 29.6 nM and at most 100 nM.
On the same counts, the results for `O=C1CCC(c2cccc(-c3ccc(CCCn4ccccc4=O)cc3)c2Cl)C(=O)N1` (stereo not drawn) [Compound 178, 3-(2-chloro-4′-(3-(2-oxopyridin-1(2H)-yl)propyl)-[1,1′-biphenyl]-3-yl)piperidine-2,6-dione] are 81.1%, 60 to 90%, 239 nM and 100 to 1000 nM.
As for `O=C1CCC(c2cccc(-c3ccc(N4CCC4=O)cc3)c2Cl)C(=O)N1` (stereo not drawn) [Compound 163, 3-(2-chloro-4′-(2-oxoazetidin-1-yl)-[1,1′-biphenyl]-3-yl)piperidine-2,6-dione], the Dmax is 44.7% under setting [1] and below 60% under setting [2]. Moreover, the DC50 reads like this: under setting [3], at least 10000 nM; under setting [4], above 1000 nM.
On the same counts, the results for `CC1CN(Cc2ccc(-c3cccc(C4CCC(=O)NC4=O)c3Cl)cc2)C(=O)C(C)O1` (stereo not drawn) [Compound 267] are 96.4%, above 90%, 11.5 nM and at most 100 nM.
On the same counts, the results for `O=C1CCC(c2c(F)ccc(-c3ccc(Cn4ccccc4=O)cc3)c2Cl)C(=O)N1` (stereo not drawn) [Compound 143, 3-(2-chloro-4-fluoro-4′-((2-oxopyridin-1(2H)-yl)methyl)-[1,1′-biphenyl]-3-yl)piperidine-2,6-dione] are 55%, below 60%, 6160 nM and above 1000 nM.
On the same counts, the results for `O=C1CCC(c2cccc(-c3ccc(CN4C(=O)CCCC45CC5)cc3)c2Cl)C(=O)N1` (stereo not drawn) [Compound 294] are 95.7%, above 90%, 8.3 nM and at most 100 nM.
Turning to `N#Cc1ccc(-c2cccc(C3CCC(=O)NC3=O)c2Cl)cc1` (stereo not drawn) [Compound 142], the Dmax reads like this: under setting [1], 69.9%; under setting [2], 60 to 90%. Further, the DC50 by setting is: under setting [3], 705 nM; under setting [4], 100 to 1000 nM.
`O=C1CCC(c2cccc(-c3ccc(CN4Cc5ccncc5C4=O)cc3)c2Cl)C(=O)N1` (stereo not drawn) [Compound 301]: the Dmax by setting is: under setting [1], 86.2%; under setting [2], 60 to 90%. Also, the DC50 by setting is: under setting [3], 71.2 nM; under setting [4], at most 100 nM.
Consider `COc1ccc(-c2cccc(C3CCC(=O)NC3=O)c2Cl)cc1C#N` (stereo not drawn) [Compound 139], for which the Dmax is 25.2% under setting [1] and below 60% under setting [2]. The DC50 by setting is: under setting [3], at least 10000 nM; under setting [4], above 1000 nM.
On the same counts, the results for `O=C1CCC(c2cccc(-c3ccc(OCc4cccnc4)cc3)c2Cl)C(=O)N1` (stereo not drawn) [Compound 123] are 96.3%, above 90%, 11.6 nM and at most 100 nM.
On the same counts, the results for `CN1CCN(Cc2ccc(-c3cccc(C4CCC(=O)NC4=O)c3Cl)cc2)C(=O)C1` (stereo not drawn) [Compound 277] are 76.8%, 60 to 90%, 647 nM and 100 to 1000 nM.
On the same counts, the results for `C[C@@H]1COC(=O)N1c1ccc(-c2cccc(C3CCC(=O)NC3=O)c2Cl)cc1` (stereo partly drawn) [Compound 217, 3-(2-chloro-4′-((R)-4-methyl-2-oxooxazolidin-3-yl)-[1,1′-biphenyl]-3-yl)piperidine-2,6-dione] are 84.6%, 60 to 90%, 43 nM and at most 100 nM.
For `Cn1cnc(CN2C(=O)Cc3cc(-c4cccc(C5CCC(=O)NC5=O)c4Cl)ccc32)c1` (stereo not drawn) [Compound 504, 3-(2-chloro-3-(1-((1-methyl-1H-imidazol-4-yl)methyl)-2-oxoindolin-5-yl)phenyl)piperidine-2,6-dione], the maximal degradation (Dmax) (luminescence read at 6 and 24 hours after compound addition, read-out: VAV1 Dmax %) stood at 96.7%; the Dmax (luminescence read at 6 and 24 hours after compound addition, read-out: VAV1 Dmax %, class) was above 90%. Also, the DC50 by setting is: (luminescence read at 6 and 24 hours after compound addition, read-out: VAV1 DC50) 5.5 nM; (luminescence read at 6 and 24 hours after compound addition, read-out: VAV1 DC50 (nM), class) at most 100 nM.
Take `Cn1ccc(COc2ccc(-c3ccc(Cl)c(C4CCC(=O)NC4=O)c3)c(Cl)c2)n1` (stereo not drawn) [Compound 153, 3-(2′,4-dichloro-4′-((1-methyl-1H-pyrazol-3-yl)methoxy)-[1,1′-biphenyl]-3-yl)piperidine-2,6-dione]: the Dmax was 1.26% under setting [1] and below 60% under setting [2]. The DC50 was at least 10000 nM under setting [3] and above 1000 nM under setting [4].
On the same counts, the results for `O=C1CCC(c2cccc(-c3ccc(N4C(=O)CCCC45CC5)cc3)c2Cl)C(=O)N1` (stereo not drawn) [Compound 232, 3-(2-chloro-4′-(5-oxo-4-azaspiro[2.5]octan-4-yl)-[1,1′-biphenyl]-3-yl)piperidine-2,6-dione] are 98.5%, above 90%, 2.8 nM and at most 100 nM.
On the same counts, the results for `CC1CCC(=O)N(c2ccc(-c3cccc(C4CCC(=O)NC4=O)c3Cl)cc2)C1` (stereo not drawn) [Compound 314] are 96.1%, above 90%, 9.68 nM and at most 100 nM.
On the same counts, the results for `Cn1ccc(Cn2c(=O)n(C)c3cc(-c4cccc(C5CCC(=O)NC5=O)c4Cl)ccc32)n1` (stereo not drawn) [Compound 363, 3-(2-chloro-3-(3-methyl-1-((1-methyl-1H-pyrazol-3-yl)methyl)-2-oxo-2,3-dihydro-1H-benzo[d]imidazol-5-yl)phenyl)piperidine-2,6-dione] are 97.1%, above 90%, 4.86 nM and at most 100 nM.
Consider `CC(Oc1ccccn1)c1ccc(-c2cccc(C3CCC(=O)NC3=O)c2Cl)cc1` (stereo not drawn) [Compound 165, 3-(2-chloro-4′-(1-(pyridin-2-yloxy)ethyl)-[1,1′-biphenyl]-3-yl)piperidine-2,6-dione], for which the Dmax by setting is: under setting [1], 90.2%; under setting [2], above 90%. For the same compound, the DC50 was 47.7 nM under setting [3] and at most 100 nM under setting [4].
On the same counts, the results for `O=C1CCC(c2cccc(-c3ccc(N4CCN5CCCC5C4=O)cc3)c2Cl)C(=O)N1` (stereo not drawn) [Compound 308] are 93.8%, above 90%, 22.5 nM and at most 100 nM.
On the same counts, the results for `CC1Oc2ccncc2N(Cc2ccc(-c3cccc(C4CCC(=O)NC4=O)c3Cl)cc2)C1=O` (stereo not drawn) [Compound 254] are 96.2%, above 90%, 11.2 nM and at most 100 nM.
On the same counts, the results for `O=C1CCC(c2cccc(-c3ccc(CN4CCn5cncc5C4=O)cc3)c2Cl)C(=O)N1` (stereo not drawn) [Compound 273] are 78%, 60 to 90%, 118 nM and 100 to 1000 nM.
In the case of `O=C1CCC(c2cccc(-c3ccc(-n4c(C(F)F)cccc4=O)cc3)c2Cl)C(=O)N1` (stereo not drawn) [Compound 238, 3-(2-chloro-4′-(6-(difluoromethyl)-2-oxopyridin-1(2H)-yl)-[1,1′-biphenyl]-3-yl)piperidine-2,6-dione], the Dmax is 98.7% under setting [1] and above 90% under setting [2]. Moreover, the half-maximal degradation concentration (DC50) is 2.24 nM under setting [3] and at most 100 nM under setting [4].
On the same counts, the results for `O=C1CCC(c2cccc(-c3ccc(N4C(=O)CCCC45CCC5)cc3)c2Cl)C(=O)N1` (stereo not drawn) [Compound 339, 3-(2-chloro-4′-(6-oxo-5-azaspiro[3.5]nonan-5-yl)-[1,1′-biphenyl]-3-yl)piperidine-2,6-dione] are 98.2%, above 90%, 1.96 nM and at most 100 nM.
On the same counts, the results for `CC(C)(c1ccc(-c2cccc(C3CCC(=O)NC3=O)c2Cl)cc1)n1ccccc1=O` (stereo not drawn) [Compound 231, 3-(2-chloro-4′-(2-(2-oxopyridin-1(2H)-yl)propan-2-yl)-[1,1′-biphenyl]-3-yl)piperidine-2,6-dione] are 90.1%, above 90%, 18.4 nM and at most 100 nM.
